Data published in patent US10238689B2, “Methods for combating bacterial infections by killing persister cells with mitomycin C and/or cisplatin” (THE PENN STATE RESEARCH FOUNDATION, priority 2015, dated 2019).
In brackets after ≈: the same amount, converted by molar mass. Like-named read-outs stand apart in the source and are kept apart here.

Tests used:
E. coli K-12 [1] = assay: Minimum inhibitory concentration (MIC) assay; format: cell-based, Escherichia coli; details: Escherichia coli, K12, 16 h, lack of turbidity, read-out: MIC
Procedure: Minimum inhibitory concentration (MIC) assay. To determine the MICs of cisplatin for E. coli K-12, enterohemorrhagic E. coli (EHEC), S. aureus, and P. aeruginosa (PAO1 and PA14), freshly inoculated cultures (at least two independent cultures) in buffered LB (TSB for S. aureus) were incubated for 16 h with varying concentrations of cisplatin, and growth inhibition was assayed by the lack of turbidity.

EHEC infection = format: in vivo, Caenorhabditis elegans; details: MMC 10 μg/mL, ciprofloxacin 5 μg/mL, ampicillin 100 μg/mL, 6 h exposure; four replicates
E. coli BW25113 = assay: Validation of persisters (three rounds of the persister assay); format: cell-based, Escherichia coli; details: for survival rate: ciprofloxacin 5 μg/mL or ampicillin 100 μg/mL, 3 h
Procedure: Validation of persisters. To validate that the persister cells are tolerant to antibiotics, not spontaneous resistant mutants, three rounds of the persister assay were performed. Overnight (16 h) cultures of E. coli BW25113 were diluted 1:1000 with fresh buffered LB and grown to a turbidity of ˜0.8 at 600 nm. […] After the first round of antibiotic treatment, a 1 mL sample was centrifuged at 10,000 rpm for 3 min, and the cells were resuspended in 1 mL of normal saline. […] For the second and third rounds, cell suspensions were diluted 1:100 with fresh buffered LB and regrown to a turbidity of ˜0.8 at 600 nm and used for antibiotic treatment followed by the drop assay.

E. coli K-12 cells = assay: Test of DNA crosslinking compounds for antimicrobial activity; format: cell-based, Escherichia coli
Procedure: Stocks of cisplatin (2 mg/mL, Sigma-Aldrich, St. Louis, Mo., USA) were prepared in 0.1M NaClO4 and MMC (0.5 mg/mL, Fisher Scientific, Pittsburgh, Pa., USA) was prepared in water. Stocks of busulfan (2 mg/mL, Cayman Chemical, Ann Arbor, Mich., USA), melphalan (2 mg/mL, Cayman Chemical), dynemicin A (5 mg/mL, AdooQ, Irvine, Calif., USA), and tirapazamine (0.5 mg/mL, Sigma-Aldrich) were prepared in dimethylsulfoxide, the stock of cyclophosphamide (0.5 mg/mL, Cayman Chemical) was prepared in water, and the stock of carmustine (214 mg/mL, Enzo Life Sciences, Farmingdale, N.Y., USA) was prepared in ethanol.
In this Example we tested seven other DNA crosslinking compounds: busulfan (100 μg/mL), carmustine (100 μg/mL) cisplatin (100 μg/mL), cyclophosphamide (100 μg/mL), dynemicin A (200 μg/mL), melphalan (100 μg/mL), and tirapazamine (10 μg/mL).

[2] = tested on: S. aureus (methicillin sensitive); assay: Planktonic antibiotic killing assay; format: cell-based, Staphylococcus aureus; details: rich medium (TSB), MMC 10 μg/mL, ciprofloxacin 5 μg/mL, 3 h
Procedure: (§1) In order to obtain exponential and mid-stationary phase cultures in LB, buffered LB or TSB, overnight cultures (16 h) were diluted 1:1000 in fresh medium and grown to the desired turbidity (i.e., a turbidity below 2 at 600 nm for exponential phase and a turbidity of 3 to 4 at 600 nm for mid-stationary phase). Late-stationary phase cultures in LB or buffered LB were obtained by growing overnight cultures (16 h). In order to obtain exponential and late-stationary phase cultures in M9-glucose, overnight cultures (16 h) were washed diluted 1:1000 in M9-glucose and grown for the desired period of time (i.e., a turbidity of 0.4 at 600 nm for exponential phase and 24 h of growth for late-stationary phase). Anaerobically grown cultures were maintained with ˜20% CO2, ˜79% N2, and ˜1% H2. In order to obtain rifampicin-induced persister cultures in buffered LB, overnight cultures (16 h) were diluted 1:1000 in fresh medium and grown to a turbidity of 0.8 at 600 nm. Cultures were exposed to rifampicin (100 μg/mL) for 30 min, centrifuged, and resuspended in fresh medium to remove the rifampicin.

[3] = tested on: E. coli K-12 persister cells; assay: Rifampicin-induced persister cell killing assay; format: cell-based, Escherichia coli
Procedure: Rifampicin-pretreatment was used to convert nearly all the E. coli exponentially-growing cells to persister cells. In brief, overnight cultures (16 h) of E. coli BW25113 were diluted 1:1000 in buffered LB and grown to a turbidity of 0.8 at 600 nm (250 mL flask, 250 rpm). Cultures were treated with rifampicin (100 μg/mL) for 30 min (250 mL flask, 250 rpm), centrifuged, and resuspended in fresh medium to remove the rifampicin. A 1 mL culture was used for a drop assay to check cell viability at 0 h. […] After 3 h, 1 mL of culture was centrifuged at 10,000 rpm for 3 min, the supernatant was discarded, the cells were resuspended in 1 mL of normal saline, and the cell suspension was serially diluted for a drop assay to check cell viability. In addition, 1 mL samples were centrifuged, and the cell pellet resuspended in 150 μL of normal saline and spread on LB agar.
To test whether lower concentrations than 500 μg/mL of cisplatin generate resistant mutants, 5 mL cultures of rifampicin-induced persister cells were treated with 200 μg/mL of cisplatin and cells were enumerated by the drop assay using LB agar, LB agar with 200 μg/mL of cisplatin (LBCP200), and LB agar with 500 μg/mL of cisplatin (LBCP500).

E. coli O157:H7 (EHEC) = assay: Planktonic antibiotic killing assay; format: cell-based, Escherichia coli; details: late-stationary phase, M9-glucose; MMC 10 μg/mL, ciprofloxacin 5 μg/mL, 3 h
Procedure: as §1

E. coli K-12 [4] = assay: Planktonic antibiotic killing assay; format: cell-based, Escherichia coli; details: for persistence (surviving population): late-stationary phase, MMC 10, ciprofloxacin 5, gentamicin 10 μg/mL, 3 h
Procedure: as §1

[5] = tested on: E. coli K-12 BW25113 VBNC cultures; assay: VBNC antibiotic killing assay; format: cell-based, Escherichia coli; details: culturable population of VBNC cultures; MMC 10 μg/mL, ciprofloxacin 5 μg/mL, 16 h
Procedure: Overnight cultures (16 h) of E. coli K-12 BW25113 grown in LB were diluted 1:1000 in LB and grown to a turbidity of 3.0 at 600 nm. Cells were washed three times with 0.85% NaCl to remove nutrients and incubated in 0.85% NaCl for 32 days until the VBNC population was ˜1,000-fold higher than the culturable population. […] Samples (0.5 mL) were diluted 1:1 with LB to stimulate cellular respiration for 10 min prior to staining with 1 μL of 1 mM RedoxSensor™ Green dye and 1 μL of 20 mM propidium iodide. Samples were visualized in a hemocytometer (Hausser Scientific, Horsham, Pa., USA) using an Olympus BX61 confocal microscope (Olympus, Tokyo, Japan) at 200× magnification in order to determine viability of the VBNC population. Cell counting data was averaged from four images and experiment was performed with at least two independent cultures.

[6] = tested on: S. aureus biofilm cultures; assay: Biofilm antibiotic killing assay; format: cell-based, Staphylococcus aureus; details: minimal medium (modified M9-glucose), 24 h treatment, MMC 10 μg/mL, ciprofloxacin 5 μg/mL
EHEC biofilm cultures = details: M9-glucose, 24 h treatment, MMC 10 μg/mL, ciprofloxacin 5 μg/mL
E. coli K-12 [7] = format: cell-based, Escherichia coli; details: late stationary phase (16 h of growth), buffered LB; cisplatin 500 μg/mL (5×MIC), ciprofloxacin 5 μg/mL (100×MIC), 8 h
Procedure: Persister cell killing and eradication assays (planktonic cells). For the time course experiment, late stationary phase cells of E. coli K-12 (wild-type and isogenic mutants) were prepared by growing cells overnight (16 h) in LB medium buffered with 100 mM KPO4 at pH 7.0 (buffered LB). A 1 mL culture was used for a drop (10 μL×3) assay to check cell viability at 0 h (i.e., before antibiotic treatment). […] At 1 h intervals, 1 mL culture was centrifuged at 10,000 rpm for 3 min, the supernatant was discarded, the cells were resuspended in 1 mL of normal saline (0.85% NaCl), and the cell suspension was serially diluted for a drop assay to check cell viability.
To test for eradication, the wild-type E. coli K-12 cells were treated with cisplatin for 12 h, a 1 mL sample was centrifuged, the cell pellet was resuspended in 150 μL of normal saline, and the cells were spread on LB agar to check cell viability. Another 1 mL culture was diluted 1:10 with fresh buffered LB and the cells were incubated to allow any remaining cells to replicate. After 12 h, 18 h, and 24 h, 1 mL samples were centrifuged, resuspended in 150 μL of normal saline and spread on LB agar plates to check cell viability. At least two independent cultures were used.

CC1(C)S[C@@H]2[C@H](NC(=O)[C@H](N)c3ccccc3)C(=O)N2[C@H]1C(=O)O [ampicillin]
MIC (E. coli K-12 [1]): 10 µg/mL (≈ 28.6 µM) | survival of the EHEC-infected worms (EHEC infection): enhanced the survival | resistant colonies on antibiotic agar (E. coli BW25113; LBCipro5 or LBAmp100 agar): no colonies were detected | survival rate (E. coli BW25113; round 1): 0.001±0.001% | survival rate (E. coli BW25113; round 2): 0.0001±0.0000% | survival rate (E. coli BW25113; round 3): 0.0001±0.0000%

CS(=O)(=O)OCCCCOS(C)(=O)=O [busulfan]
antimicrobial activity (E. coli K-12 cells; 100 μg/mL): only cisplatin exhibited antimicrobial activity

O=NN(CCCl)C(=O)NCCCl [carmustine]
antimicrobial activity (E. coli K-12 cells; 100 μg/mL): only cisplatin exhibited antimicrobial activity

O=C(O)c1cn(C2CC2)c2cc(N3CCNCC3)c(F)cc2c1=O [ciprofloxacin]
survival ([2]; exponential phase): 0.55±0.04% | survival ([2]; mid-stationary phase): 2.2±0.1% | surviving fraction of persister cells [3]: 9±1% | cells survived (E. coli O157:H7 (EHEC)): 1.2±0.1% | survival (E. coli K-12 [4]; anaerobic, late-stationary phase cells in rich medium (LB)): 0.44±0.08% | susceptibility of exponential-phase cultures (E. coli K-12 [4]; exponential phase, M9-glucose): similarly susceptible | persistence (surviving population) (E. coli K-12 [4]; M9-glucose): 10±1% | survival of the culturable population [5]: 0.40±0.05% | survival [6]: 18±2% | cells surviving (EHEC biofilm cultures): 3±1% | MIC (E. coli K-12 [1]): 0.05 µg/mL (≈ 0.151 µM) | survival of the EHEC-infected worms (EHEC infection): enhanced the survival | time course dependent killing (E. coli K-12 [7]): had little activity | survival rate (E. coli BW25113; round 1): 0.045±0.008% | survival rate (E. coli BW25113; round 2): 0.03±0.01% | survival rate (E. coli BW25113; round 3): 0.012±0.002%

O=P1(N(CCCl)CCCl)NCCCO1 (centres unmarked) [cyclophosphamide]
antimicrobial activity (E. coli K-12 cells; 100 μg/mL): only cisplatin exhibited antimicrobial activity

COC1=C(C(=O)O)[C@H](C)[C@@]23O[C@]24c2cc(O)c5c(c2N[C@H]3C#C/C=C\C#C[C@H]14)C(=O)c1c(O)ccc(O)c1C5=O [dynemicin A]
antimicrobial activity (E. coli K-12 cells): only cisplatin exhibited antimicrobial activity

N[C@@H](Cc1ccc(N(CCCl)CCCl)cc1)C(=O)O [melphalan]
antimicrobial activity (E. coli K-12 cells; 100 μg/mL): only cisplatin exhibited antimicrobial activity

Nc1n[n+]([O-])c2ccccc2[n+]1[O-] [tirapazamine]
antimicrobial activity (E. coli K-12 cells; 10 μg/mL): only cisplatin exhibited antimicrobial activity

gentamicin
persistence (surviving population) (E. coli K-12 [4]; M9-glucose): 44±5%
